Legend:
Experiment in all cases: relative viability (nuclei count vs DMSO), 5 days (fraction); higher = more cells survive
TPCA-1 + Tozasertib = compound: C1=CC(=CC=C1C2=CC(=C(S2)NC(=O)N)C(=O)N)F [TPCA-1] + Cc1cc(Nc2cc(N3CCN(C)CC3)nc(Sc3ccc(NC(=O)C4CC4)cc3)n2)n[nH]1 [Tozasertib] (partner 0.1 µM)
In short: (§1)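 One day after seeding in 1536-well plates, lung cancer cell lines were dosed by pin tool. Dosing was either single-drug or a fixed anchor-drug dose plus five library-drug doses (not always all listed) in √10 steps. After 5 days, nuclei were stained in one fix-and-stain step and counted on 4× images, and relative viability is the nuclei count of treated wells over that of vehicle wells, given as the median of duplicate plates.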

[1] = compound: C[C@]12O[C@H](C[C@]1(O)CO)n1c3ccccc3c3c4c(c5c6ccccc6n2c5c31)CNC4=O [Lestaurtinib] + Nc1ncn([C@H]2C[C@H](O)[C@@H](CO)O2)c(=O)n1 [Decitabine] (partner 2 µM)
In short: as §1

[2] = compound: C[C@]12O[C@H](C[C@]1(O)CO)n1c3ccccc3c3c4c(c5c6ccccc6n2c5c31)CNC4=O [Lestaurtinib] + CC(=O)c1c(C)c2cnc(Nc3ccc(N4CCNCC4)cn3)nc2n(C2CCCC2)c1=O [Palbociclib] (partner 0.5 µM)
In short: as §1

Lestaurtinib + Alpelisib = compound: C[C@]12O[C@H](C[C@]1(O)CO)n1c3ccccc3c3c4c(c5c6ccccc6n2c5c31)CNC4=O [Lestaurtinib] + Cc1nc(NC(=O)N2CCC[C@H]2C(N)=O)sc1-c1ccnc(C(C)(C)C(F)(F)F)c1 [Alpelisib] (partner 2 µM)
In short: as §1

Cell Line	relative viability (TPCA-1 + Tozasertib; first compound 0.04 µM)	relative viability (TPCA-1 + Tozasertib; first compound 0.1265 µM)	relative viability (TPCA-1 + Tozasertib; first compound 0.4 µM)	relative viability (TPCA-1 + Tozasertib; first compound 1.265 µM)	relative viability (TPCA-1 + Tozasertib; first compound 4 µM)	relative viability ([1]; first compound 0.005 µM)	relative viability ([1]; first compound 0.01581 µM)	relative viability ([1]; first compound 0.05 µM)	relative viability ([1]; first compound 0.1581 µM)	relative viability ([1]; first compound 0.5 µM)	relative viability ([2]; first compound 0.005 µM)	relative viability ([2]; first compound 0.01581 µM)	relative viability ([2]; first compound 0.05 µM)	relative viability ([2]; first compound 0.1581 µM)	relative viability ([2]; first compound 0.5 µM)	relative viability (Lestaurtinib + Alpelisib; first compound 0.005 µM)	relative viability (Lestaurtinib + Alpelisib; first compound 0.01581 µM)	relative viability (Lestaurtinib + Alpelisib; first compound 0.05 µM)	relative viability (Lestaurtinib + Alpelisib; first compound 0.1581 µM)	relative viability (Lestaurtinib + Alpelisib; first compound 0.5 µM)
NCI-H2342	0.437	0.438	0.499	0.617	0.391	0.713	0.76	0.742	0.722	0.77	0.518	0.439	0.545	0.526	0.504	–	–	–	–	–
NCI-H1792	–	–	–	–	–	0.485	0.567	0.336	0.543	0.256	0.976	0.734	0.491	0.768	0.366	0.858	0.875	0.516	0.429	0.209
NCI-H596	0.834	0.689	0.916	0.86	0.759	1.04	1.55	0.936	1.26	1.07	–	–	–	–	–	0.409	0.484	0.464	0.624	0.432
NCI-H1563	–	–	–	–	–	–	–	–	–	–	–	–	–	–	–	0.88	0.954	0.944	0.865	0.813
NCI-H522	0.562	0.589	0.586	0.578	0.553	0.683	0.71	0.811	0.652	0.537	0.998	1	0.879	0.871	0.631	–	–	–	–	–
SW 900	0.612	0.556	0.56	0.485	0.245	0.405	0.372	0.451	0.624	0.541	0.561	0.666	0.611	0.828	0.595	–	–	–	–	–
CAL-12T	0.327	0.299	0.257	0.236	0.206	–	–	–	–	–	0.365	0.526	0.409	0.302	0.183	1.12	1.3	1.19	0.502	0.385
EBC-1	–	–	–	–	–	–	–	–	–	–	–	–	–	–	–	0.851	0.948	0.658	0.624	0.298
NCI-H1650	0.386	–	0.459	0.339	0.257	0.441	0.623	0.457	0.506	0.54	0.353	0.433	0.356	0.396	0.245	–	–	–	–	–
IA-LM	–	–	–	–	–	–	–	–	–	–	–	–	–	–	–	0.967	0.964	1.13	1.05	0.28
NCI-H1703	–	–	–	–	–	–	–	–	–	–	–	–	–	–	–	0.293	0.288	0.283	0.2	0.117
NCI-H2228	0.299	0.178	0.285	0.232	0.108	–	–	–	–	–	1.03	1.05	0.407	0.28	0.275	0.806	0.648	0.582	0.32	0.205
